Measured values reported in patent publication US9296774B2, “Halogenated dideoxy sugar derivates, preparation method and application thereof” (Suzhou Harmony Biotechnology Co., Ltd., priority 2009, dated 2016).
“Also recorded” adds a separate entry of the source.

Key:
mouse [1] = test: Acute toxicity (LD50), mouse ig
mouse [2] = test: Acute toxicity (LD50), mouse ip injection; settings: mouse ip after injection
B16 malignant melanoma = test: Mouse transplant tumor, B16 malignant melanoma; settings: for Inhibition of tumor growth (%) / Weight of tumor / weight end / weight start: B16, 125 mg/kg once a day for 7 days; for weight end: body weight at end; for weight start: body weight at start; for inhibitive effect on mouse transplant tumor (in words): B16 malignant melanoma, 125 mg/kg
Protocol: (§1) Saline solution was used as a control. The positive group CTX was treated with the compounds at an amount of 0.4 ml/20 g. The compounds were applied once a day for consecutive 7 days.

[3] = test system: MX-1 human breast cancer cells; test: Mouse transplant tumor, MX-1 human breast cancer; settings: for inhibitive effect on mouse transplant tumor (in words): 125 mg/kg; for Inhibition of tumor growth / Weight of tumor / weight end / weight start: 125 mg/kg once a day for 7 days; for weight end: animal weight at end; for weight start: animal weight at start;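 for all read-outs here: mice given saline served as the control group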
Protocol: as §1

[4] = test system: MGC human stomach cancer cells; test: Mouse transplant tumor, MGC human stomach cancer; settings: for inhibitive effect on mouse transplant tumor (in words): 125 mg/kg; for Inhibition of tumor growth / Weight of tumor / weight end / weight start: 125 mg/kg once a day for 7 days; for weight end: animal weight at end; for weight start: animal weight at start;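 for all read-outs here: control group received saline vehicle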
Protocol: Saline solution was used as a control. The positive group CTX was treated with the compounds at an amount of 0.4 ml/20 g. The compounds were applied once a day for consecutive 7 days. The animals were then compensated.

05-732 human bone tumor = test: Mouse transplant tumor, 05-732 human osteosarcoma; settings: for inhibitive effect on mouse transplant tumor (in words): 05-732 human bone tumor, 125 mg/kg; for Inhibtion of tumor growth / Weight of tumor / weight end / weight start: 05-732 human osteosarcoma, 125 mg/kg once a day for 7 days; for weight end: animal weight at end; for weight start: animal weight at start
Protocol: as §1

[5] = test system: AsPc human pancreatic cancer cells; test: Mouse transplant tumor, AsPc human pancreatic cancer; settings: for inhibitive effect on mouse transplant tumor (in words): 125 mg/kg; for Inhibition of tumor growth / Weight of tumor / weight end / weight start: 125 mg/kg once a day for 7 days; for weight end: animal weight at end; for weight start: animal weight at start;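 for all read-outs here: Saline-treated mice served as the control group, with a CTX-treated group as positive reference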
Protocol: as §1

[6] = test system: anaplastic thyroid carcinoma TA-K cells; test: Mouse transplant tumor, human anaplastic thyroid carcinoma TA-K; settings: for inhibitive effect on mouse transplant tumor (in words): anaplastic thyroid carcinoma TA-K, 125 mg/kg; for Inhibition of tumor growth / Weight of tumor / weight end / weight start: human anaplastic thyroid carcinoma TA-K, 125 mg/kg once a day for 7 days; for weight end: animal weight at end; for weight start: animal weight at start;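 for all read-outs here: Tumor-bearing mice compared against a saline-treated control group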
Protocol: as §1

| SMILES | LD50 (mouse [1]) [mg/kg] | LD50 (mouse [2]) [mg/kg] | Inhibition of tumor growth (%) (B16 malignant melanoma) | Weight of tumor (B16 malignant melanoma) | weight end (B16 malignant melanoma) | weight start (B16 malignant melanoma) | inhibitive effect on mouse transplant tumor (in words) (B16 malignant melanoma) | inhibitive effect on mouse transplant tumor (in words) [3] | Inhibition of tumor growth [3] | Weight of tumor [3] | weight end [3] | weight start [3] | inhibitive effect on mouse transplant tumor (in words) [4] | Inhibition of tumor growth [4] | Weight of tumor [4] | weight end [4] | weight start [4] | inhibitive effect on mouse transplant tumor (in words) (05-732 human bone tumor) | Inhibtion of tumor growth (05-732 human bone tumor) | Weight of tumor (05-732 human bone tumor) | also measured |
| --- | --- | --- | --- | --- | --- | --- | --- | --- | --- | --- | --- | --- | --- | --- | --- | --- | --- | --- | --- | --- | --- |
| CC(=O)OCC1OC(OP(=O)(O)N(CCCl)CCCl)CC(Br)C1OC(C)=O (stereo not shown) [Compound 10] | 2223.7 | 315.6 | 73.1 | 0.7 | 18.3 | 18.3 | good inhibitive effect; also recorded: significant effect | good inhibitive effect; also recorded: significant effect | 73.2 | 0.7 | 18.3 | 18.3 | good inhibitive effect; also recorded: significant effect | 73.2 | 0.6 | 18.3 | 18.3 | good inhibitive effect; also recorded: significant effect | 78.4 | 0.6 | weight end (05-732 human bone tumor): 18.3; weight start (05-732 human bone tumor): 18.3; inhibitive effect on mouse transplant tumor (in words) [5]: good inhibitive effect; also recorded: significant effect; Inhibition of tumor growth [5]: 76.9; Weight of tumor [5]: 0.5; weight end [5]: 18.3; weight start [5]: 18.3; inhibitive effect on mouse transplant tumor (in words) [6]: good inhibitive effect; also recorded: significant effect; Inhibition of tumor growth [6]: 71.2; Weight of tumor [6]: 0.8; weight end [6]: 18.3; weight start [6]: 18.3 |
| CC(=O)OCC1OC(OP(=O)(O)N(CCCl)CCCl)C(Br)CC1OC(C)=O (stereo not shown) [Compound 12] | 2101.4 | 306.4 | 79.5 | 0.5 | 18.4 | 18.2 | significant effect | significant effect | 82.1 | 0.4 | 18.4 | 18.2 | significant effect | 80.5 | 0.5 | 18.4 | 18.2 | significant effect | 75.1 | 0.5 | weight end (05-732 human bone tumor): 18.4; weight start (05-732 human bone tumor): 18.2; inhibitive effect on mouse transplant tumor (in words) [5]: significant effect; Inhibition of tumor growth [5]: 77.5; Weight of tumor [5]: 0.5; weight end [5]: 18.4; weight start [5]: 18.2; inhibitive effect on mouse transplant tumor (in words) [6]: significant effect; Inhibition of tumor growth [6]: 75.8; Weight of tumor [6]: 0.6; weight end [6]: 18.4; weight start [6]: 18.2 |
